# Read-outs that look alike come from different tables or passages of the source.
# Legend:
# [1] = target: T1, vaccinia DNA topoisomerase IB (vTopo) (Vaccinia virus, UniProt P68698); assay: biochemical; conditions: for remaining activity at 100 µM: 0.5 h, read-out: % vTopo activity
# [2] = target: T1, vaccinia DNA topoisomerase IB (vTopo); assay: biochemical
# [3] = target: human topoisomerase type IB (hTopo) (Homo sapiens, UniProt P11387); assay: biochemical; type: biochemical
# Y274F vTopo = target: T2, Y274F vTopo (Vaccinia virus, UniProt P68698, Y274F); type: binding
# T2 construct: made in house
# vTopo [4] = target: T3, vTopo (Vaccinia virus, UniProt P68698); type: biochemical
# T3 construct: made in house
# vTopo [5] = target: T3, vTopo; type: biochemical; remark: listed apart in the source
# vTopo [6] = target: T3, vTopo; type: biochemical; conditions: equilibrium cleavage
# vTopo [7] = target: T3, vTopo; conditions: inhibition of vTopo; cited from earlier work
# human topo IB enzyme = target: T4, human topo IB enzyme (Homo sapiens, UniProt P11387); conditions: cited from earlier work
# T4 sequence (P11387 1-765): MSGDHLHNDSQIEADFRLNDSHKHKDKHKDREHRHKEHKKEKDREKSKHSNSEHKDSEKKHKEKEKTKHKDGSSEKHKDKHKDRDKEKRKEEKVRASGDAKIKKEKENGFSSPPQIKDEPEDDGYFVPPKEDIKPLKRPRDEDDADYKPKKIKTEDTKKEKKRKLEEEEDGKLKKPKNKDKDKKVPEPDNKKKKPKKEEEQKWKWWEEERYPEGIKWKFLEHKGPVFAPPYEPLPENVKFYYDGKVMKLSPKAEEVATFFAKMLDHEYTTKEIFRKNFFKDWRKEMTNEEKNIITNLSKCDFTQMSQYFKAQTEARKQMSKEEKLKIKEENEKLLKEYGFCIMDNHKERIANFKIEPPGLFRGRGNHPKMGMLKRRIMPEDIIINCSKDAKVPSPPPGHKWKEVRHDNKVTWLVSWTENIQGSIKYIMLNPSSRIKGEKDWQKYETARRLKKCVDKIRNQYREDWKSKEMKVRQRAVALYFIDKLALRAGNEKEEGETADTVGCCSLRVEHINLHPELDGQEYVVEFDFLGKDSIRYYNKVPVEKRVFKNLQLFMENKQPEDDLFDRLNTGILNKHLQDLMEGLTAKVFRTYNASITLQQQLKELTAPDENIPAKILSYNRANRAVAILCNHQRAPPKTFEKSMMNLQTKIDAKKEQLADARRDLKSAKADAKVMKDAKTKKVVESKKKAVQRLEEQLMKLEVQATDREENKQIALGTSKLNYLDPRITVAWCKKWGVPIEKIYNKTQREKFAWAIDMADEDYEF
# [8] = read-out: % Inhibition (RNAse HTS)
# [9] = read-out: % Inhibition (plasmid SC release assay)
structure (smiles),measurement,setting,value
Cc1cc(O)c(-c2cc(O)c(C)cc2O)cc1O [NSC 2805],remaining activity at 100 µM,[1],30%
CCCCCC(O)C1C(=O)OC(C)O/C=C/C=C/C=CC=C/C=C(/C)C(O)CC(O)CC(O)CC(O)CC(O)CC(O)CC1O (stereo not shown) [NSC 3364],inhibition at 100 µM,[1]; [8],100%
O=C(O)c1ccc2ccc(-c3cccc4cccc(C(=O)O)c34)cc2c1 [NSC 7810],inhibition at 2.5 µM,[1]; [8],100%
same,inhibition at 10 µM,[2]; [9],100%
CCC(=C(C)C)c1ccc(Oc2cccc(C(=O)O)c2)cc1 [NSC 7962],remaining activity at 100 µM,[1],33%
Cc1cc(N)c2cc(NC(=O)Nc3ccc4nc(C)cc(N)c4c3)ccc2n1 [NSC 12155],inhibition at 2.5 µM,[1]; [8],100%
same,inhibition at 0.5 µM,[2]; [9],40%
Cc1ccc(S(=O)(=O)C2C(C3COC(C)(C)O3)OC3OC(C)(C)OC32)cc1 (stereo not shown) [NSC 14163],inhibition at 2.5 µM,[1]; [8],100%
same,inhibition at 5 µM,[2]; [9],50%
same,Selectivity,[3],>3333
same,inhibition at 20 µM,[3]; [9],0%
CN(C)CS/C(N)=N/[C@H](O)C(Cl)(Cl)Cl [NSC 14555],% vTopo activity,[1],28%
same,inhibition of the relaxation reaction,[2],complete inhibition
Nc1c(OCC(=O)O)ccc2cc(S(=O)(=O)O)ccc12 [NSC 16163],inhibition at 100 µM,[1]; [8],100%
COc1ccc(/C=N/c2c(O)ccc3ccccc23)cc1OC [NSC 17061],% Inhibition (RNAse HTS),[1]; 100 µM,Partial @100 μM
CC(CCC(=O)O)(c1cc(Br)c(O)c(Br)c1)c1cc(Br)c(O)c(Br)c1 [NSC 21588],inhibition at 1.2 µM,[1]; [8],100%
same,inhibition at 5 µM,[2]; [9],100%
Cc1cc(N)c2cc(OCCOc3ccc4nc(C)cc(N)c4c3)ccc2n1 [NSC 22907],inhibition at 100 µM,[1]; [8],100%
Nc1c(S(N)(=O)=O)cc(S(N)(=O)=O)cc1S(N)(=O)=O [NSC 25857],inhibition at 100 µM,[1]; [8],100%
Cc1ccc2nc(-c3ccc(NC(=O)c4ccc(N)cc4)c(S(=O)(=O)O)c3)sc2c1 [NSC 26699],inhibition at 100 µM,[1]; [8],100%
O=C(O)C(O)(c1ccc(-c2ccccc2)cc1)c1ccc(-c2ccccc2)cc1 [NSC 28086],inhibition at 1 µM,[1]; [8],100%
same,inhibition at 5 µM,[2]; [9],100%
CC(=O)c1ccccc1C(=O)c1ccc(C(=O)O)c(C(=O)O)c1 [NSC 28620],inhibition at 1 µM,[1]; [8],100%
same,inhibition at 5 µM,[2]; [9],100%
CC(C)(C)C(=O)C(C(c1ccccc1)N1CCOCC1)N1CCOCC1 (stereo not shown) [NSC 33571],inhibition at 100 µM,[1]; [8],100%
Nc1ccc(S(=O)(=O)c2ccc(NCN3C(=O)NC(=O)C(=O)C3=O)cc2)cc1 [NSC 34238],inhibition at 100 µM,[1]; [8],100%
CNCSC(C)c1ccc(O)c(O)c1 (stereo not shown) [NSC 39215],remaining activity at 100 µM,[1],27%
CN(C)Cc1cc(O)c(O)c(CN(C)C)c1 [NSC 39225],remaining activity at 100 µM,[1],52%
Cc1c/c(=N\c2ccc3c(c2)c(N)cc(C)[n+]3C)nc(N)n1C [NSC 48223],inhibition at 100 µM,[1]; [8],100%
COc1ccc2c(=O)cc(-c3ccncc3)oc2c1OC [NSC 54646],inhibition at 10 µM,[1]; [8],100%
O=C1C=C/C(=N/c2cccc3c(/N=C4/C=CC(=O)O4)cccc23)O1 [NSC 69575],inhibition at 100 µM,[1]; [8],100%
O=C(O)C1C(C(=O)Nc2ccc3c(c2)Cc2ccccc2-3)C2(Cl)C(Cl)=C(Cl)C1(Cl)C2(Cl)Cl (stereo not shown) [NSC 73101],inhibition at 100 µM,[1]; [8],100%
O=C(O)CCc1ccc(-c2ccccc2)[nH]1 [NSC 75600],remaining activity at 100 µM,[1],35%
COc1ccc2c3c([nH]c2c1)C1CC2C(CC(O)C(OC)C2C(=O)O)CN1CC3 (stereo not shown) [NSC 81463],% Inhibition (RNAse HTS),[1]; 100 µM,Partial @100 μM
CC1CCC2(C(=O)O)CCC3(C)C(=CCC4C5(C)CC(O)C(O)C(C)(CO)C5C(O)CC43C)C2C1C (stereo not shown) [NSC 88135],inhibition at 100 µM,[1]; [8],100%
C[C@]12CCC(=O)C=C1CCC1[C@@H]3CC[C@H](C(=O)OS(=O)(=O)c4ccc(Br)cc4)C3CC[C@@H]12 (stereo partly shown) [NSC 88915],inhibition at 0.5 µM,[1]; [8],100%
same,inhibition at 0.006 µM,[2]; [9],50%
same,Selectivity,[3],833
same,inhibition at 5 µM,[3]; [9],50%
O=C1CNCCCN2CCN(CCCNCC(=O)Nc3ccc(cc3)S(=O)(=O)c3ccc(cc3)NC(=O)CNCCCN3CCN(CCCNCC(=O)Nc4ccc(cc4)S(=O)(=O)c4ccc(cc4)N1)CC3)CC2 [NSC 95609],inhibition at 100 µM,[1]; [8],100%
CC[C@@]1(O)C(=O)OCc2c1cc1n(c2=O)Cc2cc3ccccc3nc2-1 [NSC 100880],% Inhibition (RNAse HTS),[1]; 100 µM,Partial @100 μM
Cc1cc(Cl)nc2ccc(Cc3ccc4nc(Cl)cc(C)c4c3)cc12 [NSC 109451],% Inhibition (RNAse HTS),[1]; 100 µM,Partial @100 μM
O=C(O)C(=O)Cc1ccc2c(c1)OCO2 [NSC 112983],IC50,[1],~2 µM
same,Ki,[1],1.6 ± 0.6 µM
same,remaining activity at 100 µM,[1],9%
same,inhibition at 8 µM,[1]; read-out: inhibition of the ribonuclease reaction rate,~75%
same,IC50,[2],~7 µM
same,inhibition of the supercoil relaxation activity of vTopo,[2],complete inhibition
same,inhibition of the hTopo supercoil relaxation reaction,[3],no detectable inhibition
same,anisotropy of Y274F-DNA complex in presence of compound,Y274F vTopo,unchanged
same,effect on the single-turnover cleavage rate,vTopo [4]; 8 μM,no effect
same,cleavage rate kcl,vTopo [4]; in the presence of 8 μM 112983 (2.3±0.06 in its absence),1.8 ± 0.05 s⁻¹
same,% covalent complex remaining,vTopo [5],7%
same,decrease of fraction covalent complex remaining,vTopo [5],50%
same,decrease of percent covalently bound DNA,vTopo [6]; 100 μM compound,50%
same,decrease in the amount of covalent complex,"vTopo [6]; 100 μM, vs control without compound",2 fold
C/C(=N\C1CCCCC1)c1ccccc1O [NSC 120917],remaining activity at 100 µM,[1],28%
same,inhibition of the relaxation reaction,[2],complete inhibition
C/C(=N\CC(=O)O)c1ccccc1 [NSC 125214],remaining activity at 100 µM,[1],53%
COc1ccc2nc3cc(Cl)ccc3c(Nc3ccc(O)c(CN4CCN(C)CC4)c3)c2c1 [NSC 130813],inhibition at 100 µM,[1]; [8],100%
Oc1cc(O)c2c(c1)OC(c1ccc(O)c(O)c1)C(O)C2c1c(O)cc(O)c2c1OC(c1ccc(O)c(O)c1)C(O)C2 (stereo not shown) [NSC 143099],inhibition at 1 µM,[1]; [8],100%
same,inhibition at 5 µM,[2]; [9],100%
Oc1cc(O)c2c(c1)OC(c1ccc(O)c(O)c1)C(OC1(c3cc(O)c(O)c(O)c3)Oc3cc(O)cc(O)c3C(O)C1O)C2 (stereo not shown) [NSC 143101],inhibition at 0.5 µM,[1]; [8],100%
same,inhibition at 0.5 µM,[2]; [9],70%
O=[N+]([O-])/C=C/c1cc2ccccc2[nH]1 [NSC 150982],remaining activity at 100 µM,[1],54%
O=C(O)Cc1c(O)ccc2ccccc12 [NSC 163339],remaining activity at 100 µM,[1],48%
Oc1c(Cl)cc(C(c2cc(Cl)c(O)c(Cl)c2)C(c2cc(Cl)c(O)c(Cl)c2)c2cc(Cl)c(O)c(Cl)c2)cc1Cl [NSC 172033],inhibition at 10 µM,[1]; [8],100%
Nc1ncnc2nc[nH]c12.Nc1ncnc2nc[nH]c12.[Cl][Pt]([Cl])([Cl])[Cl] [NSC 177395],% Inhibition (RNAse HTS),[1]; 100 µM,100% @
O=C(O)c1cc(-c2ccc(-c3ccc(-c4cc(C(=O)O)c5cc(Cl)ccc5n4)cc3)cc2)nc2ccc(Cl)cc12 [NSC 210627],inhibition at 100 µM,[1]; [8],100%
O=C(O)c1cc2c(cc1S(=O)(=O)O)C1C(C3C2C2(Cl)C(Cl)=C(Cl)C3(Cl)C2(Cl)Cl)C2(Cl)C(Cl)=C(Cl)C1(Cl)C2(Cl)Cl (stereo not shown) [NSC 270718],% Inhibition (RNAse HTS),[1]; 10 µM,100% @
CCC(O)[NH+]1CC[NH+](C(O)CC)CC1.[Cl][Pt-2]([Cl])([Cl])([Cl])([Cl])[Cl] (stereo not shown) [NSC 295558],% Inhibition (RNAse HTS),[1]; 100 µM,100% @
Cc1ccc(NC(=[OH+])c2cc3ccccc3cc2O)c(C)c1.Cc1ccc(NC(=[OH+])c2cc3ccccc3cc2O)c(C)c1.[Ni] [NSC 306698],% Inhibition (RNAse HTS),[1]; 100 µM,100% @100 μM
CN1CCN(c2ccc3[nH]c(-c4ccc5[nH]c(-c6ccc(O)cc6)nc5c4)nc3c2)CC1 [NSC 322921],inhibition at 100 µM,[1]; [8],100%
N#C/C(=C\Nc1ccccn1)C(=O)c1ccco1 [NSC 379552],remaining activity at 100 µM,[1],7%
O=C(O)CSCc1ccc(N=C=S)c(O)c1 [NSC 403376],remaining activity at 100 µM,[1],45%
COP(OCc1ccccc1)Oc1cccc2c1C(=O)c1cn3c(c1C2=O)C(C)c1ccccc1C3 (stereo not shown) [NSC 611615],inhibition at 100 µM,[1]; [8],100%
COc1cc(C)cc2c(-c3c(O)cc(O)c4c3CC(C)NC4C)cc(-c3cc(-c4c(O)cc(O)c5c4CC(C)NC5C)c4cc(C)cc(OC)c4c3O)c(O)c12 (stereo not shown) [NSC 661755],inhibition at 10 µM,[1]; [8],100%
CC(CCC(=O)O)C1CCC2C3CCC4CC(O)CCC4(C)C3CCC12C (stereo not shown) [NSC 683770],inhibition at 100 µM,[1]; [8],100%
O=C(O)c1cnc2c(ccc3ncc(C(=O)O)c(O)c32)c1O [NSC 1288884],% Inhibition (RNAse HTS),[1]; 100 µM,Partial @100 μM
CO[C@@H]1[C@@H](OC(N)=O)[C@@H](O)[C@H](Oc2ccc3c(O)c(NC(=O)c4ccc(O)c(CC=C(C)C)c4)c(=O)oc3c2C)OC1(C)C [novobiocin],inhibition of the relaxation reaction,[2],complete inhibition
same,Ki,vTopo [7],325 µM
same,inhibition of human topo IB enzyme,human topo IB enzyme,no inhibition

# — US20080020973A1 (priority 2004, published 2008)
